Test results as given in the NIST ThermoML archive (doi:10.1016/j.fluid.2007.07.016).

Assay: xn = mol fraction of the nth substance listed
Details: 101 kPa, Liquid; for viscosity: Capillary tube (Ostwald / Ubbelohde) method; for speed of sound: Linear variable-path acoustic interferometer

Cc1ccc(C)cc1 [1,4-dimethylbenzene] + C1CCOC1
Details | speed of sound, 288.15 K [m/s] | speed of sound, 298.15 K [m/s] | speed of sound, 308.15 K [m/s] | speed of sound, 318.15 K [m/s] | viscosity, 288.15 K [mPa·s] | viscosity, 298.15 K [mPa·s] | viscosity, 308.15 K [mPa·s] | viscosity, 318.15 K [mPa·s]
x2 = 0 | 1357.5 | 1316.4 | 1268 | 1230.3 | 0.7084 | 0.611 | 0.5501 | 0.4912
x2 = 0.084 | 1356 | 1314.1 | 1265.7 | 1227.2 | 0.6971 | 0.6047 | 0.5453 | 0.4891
x2 = 0.1716 | 1354.2 | 1311.7 | 1263.2 | 1224 | 0.6842 | 0.5954 | 0.5385 | 0.4849
x2 = 0.2322 | 1353.1 | 1310.1 | 1261.6 | 1221.9 | 0.6755 | 0.5895 | 0.5339 | 0.4819
x2 = 0.2934 | 1351.7 | 1308.3 | 1259.9 | 1219.6 | 0.6656 | 0.5825 | 0.528 | 0.4777
x2 = 0.3548 | 1350.2 | 1306.5 | 1258.1 | 1217.3 | 0.6552 | 0.5748 | 0.5214 | 0.4727
x2 = 0.4284 | 1348.1 | 1304 | 1255.7 | 1214.5 | 0.642 | 0.5648 | 0.5127 | 0.4658
x2 = 0.4896 | 1346.2 | 1301.8 | 1253.7 | 1212 | 0.6304 | 0.5558 | 0.5047 | 0.4592
x2 = 0.5518 | 1344.1 | 1299.4 | 1251.5 | 1209.3 | 0.6181 | 0.5461 | 0.4959 | 0.4518
x2 = 0.6201 | 1341.5 | 1296.6 | 1248.8 | 1206.2 | 0.6039 | 0.5347 | 0.4854 | 0.4428
x2 = 0.6825 | 1338.9 | 1293.7 | 1246.2 | 1203.3 | 0.5904 | 0.5237 | 0.4751 | 0.4337
x2 = 0.7414 | 1336.3 | 1290.9 | 1243.6 | 1200.4 | 0.5767 | 0.5127 | 0.4647 | 0.4245
x2 = 0.8102 | 1333.1 | 1287.6 | 1240.6 | 1197 | 0.5609 | 0.4991 | 0.4518 | 0.4128
x2 = 0.8756 | 1329.8 | 1284.3 | 1237.5 | 1193.7 | 0.545 | 0.4855 | 0.4388 | 0.4009
x2 = 0.9409 | 1326.4 | 1280.8 | 1234.4 | 1190.4 | 0.5284 | 0.4713 | 0.425 | 0.3881

Cc1ccccc1C [1,2-dimethylbenzene] + C1CCOC1
Details | speed of sound, 288.15 K [m/s] | speed of sound, 298.15 K [m/s] | speed of sound, 308.15 K [m/s] | speed of sound, 318.15 K [m/s] | viscosity, 288.15 K [mPa·s] | viscosity, 298.15 K [mPa·s] | viscosity, 308.15 K [mPa·s] | viscosity, 318.15 K [mPa·s]
x2 = 0 | 1388.5 | 1350.3 | 1321.4 | 1285.8 | 0.8623 | 0.7576 | 0.669 | 0.5972
x2 = 0.0764 | 1384.3 | 1345.1 | 1314.5 | 1277.9 | 0.8385 | 0.738 | 0.6535 | 0.585
x2 = 0.1504 | 1380 | 1340 | 1307.8 | 1270.2 | 0.8155 | 0.7192 | 0.6384 | 0.573
x2 = 0.2243 | 1375.7 | 1335 | 1301.1 | 1262.7 | 0.7919 | 0.6998 | 0.6226 | 0.5602
x2 = 0.2942 | 1371.4 | 1330 | 1294.8 | 1255.6 | 0.769 | 0.6807 | 0.6067 | 0.5471
x2 = 0.366 | 1366.9 | 1324.9 | 1288.3 | 1248.4 | 0.7451 | 0.6606 | 0.59 | 0.5331
x2 = 0.4226 | 1363.4 | 1320.9 | 1283.2 | 1242.8 | 0.726 | 0.6445 | 0.5764 | 0.5216
x2 = 0.4801 | 1359.7 | 1316.7 | 1278 | 1237.1 | 0.7063 | 0.6277 | 0.5621 | 0.5094
x2 = 0.531 | 1356.3 | 1313 | 1273.4 | 1232.1 | 0.6888 | 0.6127 | 0.5493 | 0.4981
x2 = 0.585 | 1352.6 | 1309 | 1268.5 | 1226.8 | 0.6694 | 0.5959 | 0.5348 | 0.4856
x2 = 0.6578 | 1347.6 | 1303.6 | 1262 | 1219.7 | 0.6432 | 0.5731 | 0.515 | 0.4684
x2 = 0.7322 | 1342.5 | 1298 | 1255.4 | 1212.5 | 0.6159 | 0.5493 | 0.4941 | 0.4498
x2 = 0.8049 | 1337.4 | 1292.5 | 1248.9 | 1205.6 | 0.5887 | 0.5253 | 0.4729 | 0.431
x2 = 0.8708 | 1332.6 | 1287.5 | 1243 | 1199.3 | 0.5635 | 0.503 | 0.453 | 0.413
x2 = 0.9392 | 1327.7 | 1282.3 | 1236.9 | 1192.9 | 0.537 | 0.4794 | 0.4319 | 0.394

C1CCOC1 [tetrahydrofuran] + Cc1ccccc1
Details | speed of sound, 288.15 K [m/s] | speed of sound, 298.15 K [m/s] | speed of sound, 308.15 K [m/s] | speed of sound, 318.15 K [m/s] | viscosity, 288.15 K [mPa·s] | viscosity, 298.15 K [mPa·s] | viscosity, 308.15 K [mPa·s] | viscosity, 318.15 K [mPa·s]
x1 = 0.0718 | 1357.7 | 1309.4 | 1264.6 | 1219.3 | 0.6406 | 0.5513 | 0.5013 | 0.4399
x1 = 0.1498 | 1356.3 | 1307.9 | 1262.7 | 1217.3 | 0.635 | 0.5491 | 0.5003 | 0.4415
x1 = 0.2283 | 1354.6 | 1306.2 | 1260.7 | 1215.2 | 0.6285 | 0.5459 | 0.498 | 0.4421
x1 = 0.2902 | 1353.1 | 1304.8 | 1259.1 | 1213.5 | 0.6231 | 0.5431 | 0.4956 | 0.4418
x1 = 0.3452 | 1351.7 | 1303.4 | 1257.6 | 1212 | 0.6176 | 0.5398 | 0.4929 | 0.4408
x1 = 0.4005 | 1350.1 | 1302 | 1255.9 | 1210.4 | 0.6113 | 0.5357 | 0.4894 | 0.4388
x1 = 0.4694 | 1347.8 | 1299.9 | 1253.7 | 1208.2 | 0.6027 | 0.5298 | 0.484 | 0.4352
x1 = 0.5368 | 1345.4 | 1297.7 | 1251.4 | 1205.9 | 0.5934 | 0.523 | 0.4775 | 0.4307
x1 = 0.6067 | 1342.8 | 1295.2 | 1248.8 | 1203.4 | 0.5834 | 0.5155 | 0.4704 | 0.4253
x1 = 0.6704 | 1340.1 | 1292.8 | 1246.3 | 1200.9 | 0.5736 | 0.508 | 0.463 | 0.4196
x1 = 0.7378 | 1337 | 1289.9 | 1243.5 | 1198.3 | 0.5626 | 0.4993 | 0.4544 | 0.4125
x1 = 0.8018 | 1333.8 | 1287 | 1240.7 | 1195.7 | 0.5515 | 0.4903 | 0.4453 | 0.405
x1 = 0.8714 | 1330.2 | 1284 | 1237.6 | 1192.8 | 0.5387 | 0.4797 | 0.4346 | 0.3957
x1 = 0.9368 | 1326.6 | 1280.7 | 1234.5 | 1190 | 0.5259 | 0.469 | 0.4237 | 0.3861
x1 = 1 | 1323.1 | 1277.6 | 1231.5 | 1187.2 | 0.5129 | 0.458 | 0.4125 | 0.3762
